Values joined by “and” are separate entries in the source; they are usually repeats but may differ in a detail not shown here. Equal entries are not always repeated. Where two headings read alike, the source gives them in different places. One block for each molecule: values may come before it.
What was measured:
[1] = biological target: T1, human recombinant histamine H2 receptor (Homo sapiens, UniProt P25021); test: Histamine H2 radioligand binding ([125I]Aminopotentidine)
T1 construct: expressed in transfected cells; host or cells: CHO-K1 cells
T1 sequence (P25021 whole entry): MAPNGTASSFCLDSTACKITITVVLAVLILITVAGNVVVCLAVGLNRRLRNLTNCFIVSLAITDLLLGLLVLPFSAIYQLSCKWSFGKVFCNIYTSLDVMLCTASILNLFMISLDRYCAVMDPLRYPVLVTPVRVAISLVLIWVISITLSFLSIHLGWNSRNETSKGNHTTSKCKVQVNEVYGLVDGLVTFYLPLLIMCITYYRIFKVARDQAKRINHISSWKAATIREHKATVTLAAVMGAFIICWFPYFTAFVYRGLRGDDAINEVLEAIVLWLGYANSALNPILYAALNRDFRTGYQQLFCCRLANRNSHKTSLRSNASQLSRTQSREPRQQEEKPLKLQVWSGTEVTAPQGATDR
Description: Non-specific binding was estimated in the presence of 3 μM Tiotidine. […] Biochemical assay results are presented as the percent inhibition of specific binding in Table 5.
Non-specific binding was estimated in the presence of 3 μM Tiotidine. […] Compounds were screened at 1 μM, using 1% DMSO as vehicle. Biochemical assay results are presented as the percent inhibition of specific binding in Table 6.

[2] = biological target: T2, human recombinant histamine H1 receptor (Homo sapiens, UniProt P35367); test: Histamine H1 radioligand binding ([3H]Pyrilamine)
T2 construct: expressed in transfected cells; host or cells: CHO cells
T2 sequence (P35367 whole entry): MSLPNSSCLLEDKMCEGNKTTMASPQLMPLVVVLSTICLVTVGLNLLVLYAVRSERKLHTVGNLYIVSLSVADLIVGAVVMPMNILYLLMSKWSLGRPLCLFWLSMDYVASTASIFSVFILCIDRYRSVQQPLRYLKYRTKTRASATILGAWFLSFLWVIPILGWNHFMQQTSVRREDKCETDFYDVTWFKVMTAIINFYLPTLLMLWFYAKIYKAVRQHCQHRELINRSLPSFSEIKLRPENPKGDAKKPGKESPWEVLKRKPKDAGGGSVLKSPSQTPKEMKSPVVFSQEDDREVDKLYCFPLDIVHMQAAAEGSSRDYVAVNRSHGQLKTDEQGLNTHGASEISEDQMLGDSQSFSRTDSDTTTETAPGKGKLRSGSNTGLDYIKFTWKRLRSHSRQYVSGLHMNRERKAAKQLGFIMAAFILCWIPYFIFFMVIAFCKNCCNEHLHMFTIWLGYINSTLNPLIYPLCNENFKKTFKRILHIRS
Description: To evaluate in radioligand binding assays the activity of compounds of the invention, human recombinant histamine H1 receptor expressed in Chinese hamster ovary (CHO) cells (De Backer M D et al. Biochem. Biophys. Res Comm. 197(3):1601, 1993) in a modified Tris-HCl buffer (50 mM Tris-HCl, pH 7.4, 2 mM MgCl2, 100 mM NaCl, 250 mM Sucrose) were used. […] Non-specific binding was estimated in the presence of 1 μM pyrilamine. Receptor proteins were filtered and washed, the filters were then counted to determine [^3H]pyrilamine specifically bound. […] Biochemical assay results are presented as the percent inhibition of specific binding in Table 5.
To evaluate in radioligand binding assays the activity of compounds of the invention, human recombinant histamine H1 receptor expressed in Chinese hamster ovary (CHO) cells (De Backer, M. D. et al., Biochem. Biophys. Res. Comm. 197(3):1601, 1993) in a modified Tris-HCl buffer (50 mM Tris-HCl, pH 7.4, 2 mM MgCl2, 100 mM NaCl, 250 mM Sucrose) was used. […] Non-specific binding was estimated in the presence of 1 μM pyrilamine. Receptor proteins were filtered and washed, the filters were then counted to determine [^3H]Pyrilamine specifically bound. Compounds were screened at 1 μM, using 1% DMSO as vehicle. Biochemical assay results are presented as the percent inhibition of specific binding in Table 6.

[3] = system: synaptosomes of cortex of rat brain; test: Glutamate-induced 45Ca2+ uptake into synaptosomes; format: biochemical, Wistar rats; conditions: for % Ca of control (control-100%), glutamate-induced 45Ca2+ uptake into synaptosomes: rat cortex synaptosomes
Description: Synaptosomes were obtained from cerebral cortex of newborn (9-10 days) Wistar rats using standard Hajos method. The brain was homogenized with 10 volumes of cooled 0.32 M sucrose at 900 rpm. The homogenate was centrifuged at 1500 g for 10 min. and the resulted supernatant was centrifuged at 10000 g for 20 min. The radioactive label was accumulated by suspension of the synaptosomal P2-fraction in the incubation buffer A having the following composition: 132 mM NaCl, 5 mM KCl, 5 mM HEPES, 10 mM glucose, pH 7.4 (protein concentration of approximately 1.5-2 mg/ml). The mixture was further incubated for 5 min with 200 μM glutamate at 37° C. and then ^45Ca^2+ uptake was stopped by filtration through GF/B filters (Whatman, England) followed by three washes with cold buffer B (145 mM KCl, 10 mM Tris, 5.4 mM Trilon B, pH 7.4). The radioactivity probes were analyzed by fluid scintillation beta-analyzer (TriCarb, Perkin Elmer). All tests were performed in three parallel trials in 2-3 independent experiments. The amount of ^45Ca^2+ uptake was estimated by calculating the difference of radioactive label during the stimulation with glutamate and without the stimulation with agonist.
Specific ^45Ca^2+ uptake was estimated using the following equation: K(43/21)=[(Ca4−Ca3)/(Ca2−Ca1)]100%, where
Ca1—^45Ca^2+ uptake for the Control (without glutamate and the compound tested),
[…] glutamate-induced ^45Ca^2+ uptake (glutamate only),
Ca3—^45Ca^2+ uptake in the presence of the compound tested (without glutamate),
Ca4—^45Ca^2+ uptake in the presence of glutamate and the testing compound.
Statistical analysis of the results was performed using Student's t-test.

mice = test: recognition test of new location of a known object (spatial memory); format: in vivo; conditions: for time exploring the object in a new location, % of the total time / time exploring the object in the known position, % of the total time / effect of the dose on exploration time / memory (in words) / overall effect on memory (in words): mice; for overall effect on memory (in words): doses 0.05-1 mg/kg
[4] = 1 μM compound, 0.1 nM [125I]Aminopotentidine, read-out: Histamine Binding H2, percent inhibition of specific binding
[5] = 1 μM compound, […] [3H]Pyrilamine, read-out: Histamine Binding H1, percent inhibition of specific binding

SMILES: CN1CCc2c(c3cc(Cl)ccc3n2CCc2n[nH]c(=S)n2C)C1(C)C [Compound 220]
Histamine Binding H2, percent inhibition of specific binding ([1]; 1 μM compound, 0.1 nM [125I]Aminopotentidine): 22% | Histamine Binding H1, percent inhibition of specific binding ([2]; 1 μM compound, […] [3H]Pyrilamine): 3%

SMILES: Cc1ccc2c(c1)c1c(n2CCC(=O)N2CCC(NC(=O)OC(C)(C)C)CC2)CCN(C)C1 [Compound 226, tert-butyl 1-(3-(1,2,3,4-tetrahydro-2,8-dimethylpyrido[4,3-b]indol-5-yl)propanoyl)piperidin-4-ylcarbamate]
inhibition at 1 µM [1, 4]: 96% | inhibition at 1 µM [2, 5]: 87%

SMILES: Cc1ccc2c(c1)c1c(n2CCc2ccc(C(=O)O)nc2)CCN(C)C1=O [Compound 241]
inhibition at 1 µM ([1]; read-out: Histamine Binding H2, percent inhibition of specific binding): 11% | inhibition at 1 µM ([2]; read-out: Histamine Binding H1, percent inhibition of specific binding): 19%

SMILES: CN1CCc2c(c3ccccc3n2CCc2nc(-c3ccccc3)cs2)C1 [Compound C1-1]
concentration at which glutamate-induced 45Ca2+ uptake into synaptosomes was increased [3]: 50 to 100 µM | inhibition of glutamate-induced 45Ca2+ uptake into synaptosomes ([3]; 0.1-0.5 μM): ~13% | glutamate-induced 45Ca2+ uptake into synaptosomes of rat cortex, % Ca of control (control-100%) ([3]; C 50 μM): 126.9% | % Ca of control (control-100%), glutamate-induced 45Ca2+ uptake into synaptosomes ([3]; compound 0.1 μM): 85.5 ± 5.8% | % Ca of control (control-100%), glutamate-induced 45Ca2+ uptake into synaptosomes ([3]; compound 0.5 μM): 86.9 ± 4.2% | % Ca of control (control-100%), glutamate-induced 45Ca2+ uptake into synaptosomes ([3]; compound 1 μM): 100.3 ± 6.5% | % Ca of control (control-100%), glutamate-induced 45Ca2+ uptake into synaptosomes ([3]; compound 5 μM): 98.8 ± 3.2% | % Ca of control (control-100%), glutamate-induced 45Ca2+ uptake into synaptosomes ([3]; compound 10 μM): 91 ± 11.9% | % Ca of control (control-100%), glutamate-induced 45Ca2+ uptake into synaptosomes ([3]; compound 50 μM): 126.9 ± 4.5% | % Ca of control (control-100%), glutamate-induced 45Ca2+ uptake into synaptosomes ([3]; compound 100 μM): 111.9 ± 11.31% | Influence on memory in the test recognition new localization of known object (mice; Dose of Compound 0.05 mg/kg): + | Influence on memory in the test recognition new localization of known object (mice; Dose of Compound 0.1 mg/kg): + | Influence on memory in the test recognition new localization of known object (mice; Dose of Compound 0.5 mg/kg): − | Influence on memory in the test recognition new localization of known object (mice; Dose of Compound 1.0 mg/kg): + | activity on memory compared with dimebon (in words) (mice; comparison of effective doses): approximately two times higher | time exploring the object in a new location, % of the total time (mice; dose 0.05 mg/kg): 61.8±8.4% | time exploring the object in the known position, % of the total time (mice; dose 0.05 mg/kg): 38.2±8.4% | time exploring the object in a new location, % of the total time (mice; dose 0.1 mg/kg): 56.0±6.9% | time exploring the object in the known position, % of the total time (mice; dose 0.1 mg/kg): 42.7±6.9% | effect of the dose on exploration time / memory (in words) (mice; dose 0.5 mg/kg): disappearance of the stimulating effect on memory | time exploring the object in a new location, % of the total time (mice; dose 1 mg/kg): 61.5±8.9% | time exploring the object in the known position, % of the total time (mice; dose 1 mg/kg): 37.8±8.9% | overall effect on memory (in words) (mice): stimulating effect on memory

SMILES: COc1ccc2c(c1)c1c(n2CCc2noc(-c3ccccc3)n2)CCN(C)C1 [Compound C4-5]
concentration at which glutamate-induced 45Ca2+ uptake into synaptosomes was inhibited [3]: 1 to 25 µM | inhibition of glutamate-induced 45Ca2+ uptake into synaptosomes ([3]; 10 μM (maximal inhibition)): 40% | glutamate-induced 45Ca2+ uptake into synaptosomes of rat cortex, % Ca of control (control-100%) ([3]; C 0.1 μM): 136.4% and 136.4 ± 11.8% | glutamate-induced 45Ca2+ uptake into synaptosomes of rat cortex, % Ca of control (control-100%) ([3]; C 0.5 μM): 124.6 ± 13.7% | glutamate-induced 45Ca2+ uptake into synaptosomes of rat cortex, % Ca of control (control-100%) ([3]; C 1.0 μM): 99.8 ± 0.1% | glutamate-induced 45Ca2+ uptake into synaptosomes of rat cortex, % Ca of control (control-100%) ([3]; C 5.0 μM): 84.2 ± 0.7% | glutamate-induced 45Ca2+ uptake into synaptosomes of rat cortex, % Ca of control (control-100%) ([3]; C 10 μM): 59.9 ± 0.2% | glutamate-induced 45Ca2+ uptake into synaptosomes of rat cortex, % Ca of control (control-100%) ([3]; C 25 μM): 98.6 ± 9.4% | glutamate-induced 45Ca2+ uptake into synaptosomes of rat cortex, % Ca of control (control-100%) ([3]; C 50 μM): 111.7 ± 11.2% | glutamate-induced 45Ca2+ uptake into synaptosomes of rat cortex, % Ca of control (control-100%) ([3]; C 100 μM): 148.4% and 148.4 ± 7.3% | Influence on memory in the test recognition new localization of known object (mice; Dose of Compound 0.05 mg/kg): − | Influence on memory in the test recognition new localization of known object (mice; Dose of Compound 0.1 mg/kg): − | Influence on memory in the test recognition new localization of known object (mice; Dose of Compound 0.5 mg/kg): + | Influence on memory in the test recognition new localization of known object (mice; Dose of Compound 1.0 mg/kg): + | activity on memory: times weaker than dimebon (mice; comparison of effective doses): approximately 10 times | effect of the dose on exploration time / memory (in words) (mice; dose 0.05 mg/kg): not effective | effect of the dose on exploration time / memory (in words) (mice; dose 0.1 mg/kg): not effective | time exploring the object in a new location, % of the total time (mice; dose 0.5 mg/kg): 56.2±7.6% | time exploring the object in the known position, % of the total time (mice; dose 0.5 mg/kg): 43.8±7.6% | time exploring the object in a new location, % of the total time (mice; dose 1 mg/kg): 60.6±8.4% | time exploring the object in the known position, % of the total time (mice; dose 1 mg/kg): 39.4±8.4% | overall effect on memory (in words) (mice): stimulated memory

The remaining lines, values ahead:

inhibition at 0.1 µM ([1]; 0.1 μM compound, 0.1 nM [125I]Aminopotentidine, read-out: Histamine Binding H2, percent inhibition of specific binding): 89% | inhibition at 1 µM [1, 4]: 98% | inhibition at 0.01 µM ([2]; 10 nM (0.01 μM) compound, […] [3H]Pyrilamine, read-out: Histamine Binding H1, percent inhibition of specific binding): 85% | inhibition at 0.1 µM ([2]; 0.1 μM compound, […] [3H]Pyrilamine, read-out: Histamine Binding H1, percent inhibition of specific binding): 101% | inhibition at 1 µM [2, 5]: 103%
SMILES: FC(F)(F)c1ccc2c(c1)c1c(n2CCc2noc(-c3ccccc3)n2)CCN(C2CC2)C1 [Compound 222]

inhibition at 1 µM [1, 4]: 94% | inhibition at 1 µM [2, 5]: 100%
SMILES: CN1Cc2c(n(CCc3noc(-c4ccccc4)n3)c3ccc(Cl)cc23)CC12CC2 [Compound 223]

inhibition at 1 µM [1, 4]: 87% | inhibition at 1 µM [2, 5]: 94%
SMILES: CN1Cc2c(n(CCc3noc(-c4ccc(Cl)cc4)n3)c3ccc(Cl)cc23)CC12CC2 [Compound 242]
